Patent US12622912B2, “Application of pyrido[1,2-a]pyrimidinone analog” (GUANGZHOU JOYO PHARMATECH CO., LTD, priority 2021, dated 2026)

Columns and labels:
[1] = target: T1, human PI3K p110α (H1047R)/p85α (Homo sapiens, UniProt P42336, H1047R); experiment: HTRF kinase activity assay, H1047R mutant; assay type: biochemical
T1 construct: purchased Millipore 14-792
Procedure: (§1) Main reagents: human PI3K p110α/p85α (purchased from Promega, Cat. No. V1721), human PI3K p110α (E542K)/p85α (purchased from Millipore, Cat. No. 14-782), human PI3K p110α (E545K)/p85α (purchased from Millipore, Cat. No. 14-783) and human PI3K p110α (H1047R)/p85α (purchased from Millipore, Cat. No. 14-792)
(§2) 1) Compound was prepared. The initial concentration of compound I was 100 nM, and was serially diluted 3-fold to 10 concentrations and transferred to the test plate.
(§3) 2) Human PI3K p110α/p85α, human PI3K p110α (E542K)/p85α, human PI3K p110α (E545K)/p85α or human PI3K p110α (H1047R)/p85α and assay buffer (10 μM phosphatidylinositol 4,5-bisphosphate and Mg/ATP) were incubated. The reaction was initiated by adding ATP solution and incubated for 30 min.
(§4) 3) After incubation for 30 minutes, the reaction was terminated by adding stop solution. The stop solution contained EDTA, biotinylated phosphatidylinositol-3,4,5-trisphosphate.
(§5) 4) Detection buffer was added, europium-tagged anti-GST monoclonal antibody, GST-tagged GRP1 PH domain, and streptavidin allophycocyanin.
(§6) 5) The plate was read and the HTRF value was calculated according to the formula HTRF=10000×(Em665 nm/Em620 nm). GraphPad Prism 5.0 software was used, and a S-type dosage-survival rate curve was drawn using a nonlinear regression model and IC50 value was calculated.

[2] = test system: C-33A PIK3CA-mutated cervical cancer cell line; experiment: CTG cell proliferation, C-33A; assay type: cell-based; details: Homo sapiens, 72 hours, read-out: Absolute IC50
Source text: (§7) (2) Reagents • 1) FBS (fetal bovine serum) (purchased from ExCell, product number: FND500); • 2) RPMI1640 medium (purchased from Hyclone, product number: SH30809.01); • 3) McCoy's 5A medium (purchased from Gibco, product number: 12330-031); • 4) MEM medium (purchased from Hyclone, product number: SH30024.01; • 5) MEM NEAA (purchased from Gibco, product number: 11140-050); • 6) Sodium pyruvate (purchased from Gibco). (3) Test Article and Positive Control Article • Test article: compound I; Positive Control Article: • 1) Alpelisib, molecular weight: 441.47; solvent: DMSO; storage condition after dissolution: −20° C.; supplier: Shanghai TOPSCIENCE Biochemical Technology Co., Ltd., CAS number: 1217486-61-7; • 2) Cisplatin, molecular weight: 300.05; solvent: PBS (phosphate buffer saline); storage condition: 2-8° C.; supplier: Qilu Pharmaceutical. (4) The CTG Method was Used to Determine the Cell Proliferation IC50 of the Compound
(§8) Step 1: Cells in exponential growth phase were harvested, and viable cells were counted with a Vi-Cell XR cytometer. The cell suspension was adjusted to an appropriate concentration with medium. 90 μL of cell suspension was added to each well of a 96-well cell culture plate, and the final cell concentration was 1500-6000 cells/well. […]
(§9) Step 3: After 72 hours of drug treatment, 50 μL (½ culture volume) CTG solution that was melted and equilibrated to room temperature was added to each well according to the CTG operation instruction. […] After 10 minutes, the fluorescence signal value was measured with an Envision2104 plate reader.
(§10) Cell survival rate was calculated using the formula: Vsample/Vvehicle control×100%. Where, Vsample was the reading of the drug treatment group, and Vvehicle control was the average value of the solvent control group. GraphPad Prism 5.0 software was used, and a S-type dosage-survival rate curve was drawn using a nonlinear regression model and IC50 value was calculated.

[3] = target: T2, human PI3K p110α (E545K)/p85α (Homo sapiens, UniProt P42336, E545K); experiment: HTRF kinase activity assay, E545K mutant; assay type: biochemical
T2 construct: purchased Millipore 14-783
T2 sequence (P42336 whole entry E545K): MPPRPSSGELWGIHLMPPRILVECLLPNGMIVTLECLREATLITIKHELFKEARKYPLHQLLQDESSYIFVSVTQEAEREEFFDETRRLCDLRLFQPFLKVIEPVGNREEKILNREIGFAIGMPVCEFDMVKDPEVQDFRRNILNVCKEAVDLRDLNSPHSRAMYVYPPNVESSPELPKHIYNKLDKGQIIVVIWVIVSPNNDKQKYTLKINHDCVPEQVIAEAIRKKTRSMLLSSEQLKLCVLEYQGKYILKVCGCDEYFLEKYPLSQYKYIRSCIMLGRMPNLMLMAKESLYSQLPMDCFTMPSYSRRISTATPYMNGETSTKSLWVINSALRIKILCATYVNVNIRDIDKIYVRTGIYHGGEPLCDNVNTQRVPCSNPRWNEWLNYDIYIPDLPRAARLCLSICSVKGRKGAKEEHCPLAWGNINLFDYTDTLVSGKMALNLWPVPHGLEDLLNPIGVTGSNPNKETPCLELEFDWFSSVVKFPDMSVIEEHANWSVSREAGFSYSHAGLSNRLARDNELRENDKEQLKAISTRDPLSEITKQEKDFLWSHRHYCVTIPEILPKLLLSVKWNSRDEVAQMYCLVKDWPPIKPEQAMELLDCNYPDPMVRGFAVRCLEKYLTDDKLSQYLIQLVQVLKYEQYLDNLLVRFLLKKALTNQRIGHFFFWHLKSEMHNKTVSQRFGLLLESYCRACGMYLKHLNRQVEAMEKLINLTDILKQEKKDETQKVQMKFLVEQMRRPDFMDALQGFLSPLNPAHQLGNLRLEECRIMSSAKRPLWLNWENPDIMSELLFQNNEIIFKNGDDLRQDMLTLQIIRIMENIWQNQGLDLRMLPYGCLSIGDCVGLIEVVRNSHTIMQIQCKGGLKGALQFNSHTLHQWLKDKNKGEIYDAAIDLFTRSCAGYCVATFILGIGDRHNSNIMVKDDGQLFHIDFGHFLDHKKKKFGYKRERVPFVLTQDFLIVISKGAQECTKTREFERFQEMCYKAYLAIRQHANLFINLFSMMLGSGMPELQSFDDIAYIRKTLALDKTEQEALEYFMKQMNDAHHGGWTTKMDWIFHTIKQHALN
T2 sequence (P27986 whole entry partner): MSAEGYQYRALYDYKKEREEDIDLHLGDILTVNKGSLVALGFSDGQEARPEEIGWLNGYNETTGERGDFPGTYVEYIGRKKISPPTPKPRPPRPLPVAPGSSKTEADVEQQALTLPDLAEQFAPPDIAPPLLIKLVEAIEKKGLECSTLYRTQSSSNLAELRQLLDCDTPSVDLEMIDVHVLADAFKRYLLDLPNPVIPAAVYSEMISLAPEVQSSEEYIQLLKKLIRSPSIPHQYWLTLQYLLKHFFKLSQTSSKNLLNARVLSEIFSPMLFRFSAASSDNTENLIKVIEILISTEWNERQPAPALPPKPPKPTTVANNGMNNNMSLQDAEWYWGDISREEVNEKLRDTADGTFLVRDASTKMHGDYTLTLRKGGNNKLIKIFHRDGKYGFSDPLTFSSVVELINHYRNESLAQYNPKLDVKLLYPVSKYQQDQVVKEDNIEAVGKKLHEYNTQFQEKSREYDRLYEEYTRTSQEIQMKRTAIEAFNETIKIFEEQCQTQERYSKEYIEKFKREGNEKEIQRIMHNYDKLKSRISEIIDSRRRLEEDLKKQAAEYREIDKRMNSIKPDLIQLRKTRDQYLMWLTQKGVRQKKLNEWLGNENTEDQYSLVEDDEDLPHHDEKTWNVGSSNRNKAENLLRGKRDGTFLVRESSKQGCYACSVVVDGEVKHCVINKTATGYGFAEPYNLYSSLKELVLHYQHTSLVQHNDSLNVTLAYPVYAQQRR
Procedure: as §1, §2, §3, §4, §5, §6

[4] = target: T3, human PI3K p110α (E542K)/p85α (Homo sapiens, UniProt P42336, E542K); experiment: HTRF kinase activity assay, E542K mutant; assay type: biochemical
T3 construct: purchased Millipore 14-782
T3 sequence (P42336 whole entry E542K): as the sequence (P42336 whole entry E545K) above, with E542K, K545E counted along it
T3 sequence (P27986 whole entry partner): as the sequence (P27986 whole entry partner) above
Procedure: as §1, §2, §3, §4, §5, §6

[5] = test system: ME-180 PIK3CA-mutated cervical cancer cell line; experiment: CTG cell proliferation, ME-180; assay type: cell-based; details: Homo sapiens; ME-180, CTG, 72 hours; read-out: Absolute IC50
Source text: as §7, §8, §9, §10

T1 sequence (P42336 whole entry H1047R): as the sequence (P42336 whole entry E545K) above, with K545E, H1047R counted along it
T1 sequence (P27986 whole entry partner): as the sequence (P27986 whole entry partner) above

IC50 [1]: 2 nM
IC50 [2]: 180 nM
IC50 [3]: 1 nM
IC50 [4]: 3 nM
IC50 [5]: 15 nM
Structure (SMILES): COCCOc1cnc2ccc(-c3cnc(OC)c(NS(=O)(=O)c4sc(C)nc4C)c3)cn2c1=O [Compound I]
